Reference: paper PMC12107143, “MALT1 inhibitor MI-2 induces ferroptosis by direct targeting of GPX4” (Proceedings of the National Academy of Sciences of the …, 2025)

Molecular target: T1, MALT1 (Homo sapiens, UniProt Q9UDY8)
T1 construct: GST-MALT1 (aa 325–760)
T1 sequence (Q9UDY8 325-760): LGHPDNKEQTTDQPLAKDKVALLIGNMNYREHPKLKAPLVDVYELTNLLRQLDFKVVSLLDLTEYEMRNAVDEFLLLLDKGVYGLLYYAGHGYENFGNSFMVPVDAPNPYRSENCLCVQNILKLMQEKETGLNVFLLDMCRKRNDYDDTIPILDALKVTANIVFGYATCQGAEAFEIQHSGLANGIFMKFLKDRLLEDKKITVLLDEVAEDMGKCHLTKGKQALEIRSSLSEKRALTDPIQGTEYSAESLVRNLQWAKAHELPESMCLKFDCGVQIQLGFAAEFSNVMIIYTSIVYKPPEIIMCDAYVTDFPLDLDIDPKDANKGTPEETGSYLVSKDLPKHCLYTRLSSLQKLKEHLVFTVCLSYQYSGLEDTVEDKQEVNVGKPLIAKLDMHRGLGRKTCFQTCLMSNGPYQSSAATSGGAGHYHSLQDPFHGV
Experiment: recombinant GST-MALT1 protease assay with fluorescence substrate Ac-LRSR-AMC
Assay type: biochemical

In the case of COCCOc1nc(-c2ccc(Cl)c(Cl)c2)n(-c2ccc(NC(=O)CCl)cc2)n1 [MI-2], the IC50 is reported as 2100 nM.
